In patent publication US20230406911A1, “COMPOSITIONS AND METHODS FOR PREVENTING, INHIBITING, DISRUPTING, OR TREATING A POLYMICROBIAL BIOFILM” (priority 2020, published 2023):

Experiments:
[1] = test system: established NTHI biofilms; details: antibiotic at concentrations ≥4-fold below the MIC; Brockson et al., 2014; cited from earlier work
NRel NTHI = details: Mokrzan et al., 2018; cited from earlier work
NTHI = experiment: Antibiotic sensitivity of biofilm-resident, planktonic or NRel NTHI; assay type: cell-based, Nontypeable Haemophilus influenzae strain 86-028NP; details: for sensitivity of biofilm-resident NTHI to killing: 16 h biofilm, same concentrations as for planktonic/NRel; for sensitivity of biofilm-resident NTHI to killing / killing of planktonic NTHI at the concentration chosen for the assay: 2 h antibiotic exposure; for sensitivity of anti-IHF NRel to killing, compared with planktonic NTHI / sensitivity of anti-IHF NRel to killing, compared with biofilm-resident NTHI: NRel collected after 15 min anti-IHF IgG, TMP-SMX 0.09/0.45 μg/ml, AMC 0.30/0.15 μg/ml; for sensitivity of anti-IHF NRel to killing, compared with planktonic NTHI: 2 h (FIG. 5d, 5e); for sensitivity of anti-IHF NRel to killing, compared with biofilm-resident NTHI / sensitivity of anti-rsPilA NRel to killing, compared with biofilm-resident NTHI: 2 h, P≤0.0001; for susceptibility of time-matched anti-IHF NRel to killing, compared with planktonic NTHI: NRel collected after 2 h anti-IHF IgG, TMP-SMX 0.94/4.7 μg/ml, AMC 2.5/1.25 μg/ml (FIG. 6c, 6d); for susceptibility of time-matched anti-rsPilA NRel to killing, compared with planktonic NTHI: NRel collected after 2 h anti-rsPilA IgG, TMP-SMX 0.09/0.45 μg per ml, AMC 0.3/0.15 μg per ml (FIG. 6a, 6b); for sensitivity of anti-rsPilA NRel to killing, compared with planktonic NTHI / sensitivity of anti-rsPilA NRel to killing, compared with biofilm-resident NTHI: NRel collected after 6 h anti-rsPilA IgG, TMP-SMX 0.94/4.7 μg per ml, AMC 2.5/1.25 μg per ml; for sensitivity of anti-rsPilA NRel to killing, compared with planktonic NTHI: 2 h (FIG. 5b, 5c); for killing of planktonic NTHI at the concentration chosen for the assay: mid-log planktonic NTHI density-matched to NRel
Method: To avoid excessive manipulation or dilution of NRel NTHI, and to permit direct comparison of equal numbers of planktonic and NRel, Applicant adjusted the planktonic cell density to the same CFU per ml as the NRel population in each experiment as follows: NTHI were incubated statically to mid log phase growth then diluted to either 3×10^8 CFU/ml for comparison with anti-rsPilA NRel collected at 6 h, or to 2×10^8 CFU/ml for comparison with anti-IHF NRel collected at 15 min (see FIG. 1). Applicant then determined the concentrations of amoxicillin (Sigma-Aldrich, St. Louis, MO) and clavulanate (U.S. Pharmacopeia, Rockville, MD), or of trimethoprim (Sigma-Aldrich) and sulfamethoxazole (Santa Cruz Biotech, Dallas, TX) that killed approximately 25% of planktonic NTHI at each density. The same antibiotic concentrations were used for the anti-IHF or anti-rsPilA NRel, the density-matched (same CFU/ml) planktonic NTHI, and the adherent biofilm for each relevant experiment. […] Applicant then assessed killing of anti-IHF or anti-rsPilA NRel by concentrations of amoxicillin plus clavulanic acid (“augmentin”, AMC) or trimethoprim plus sulfamethoxazole (TMP-SMX) that killed 25% of the planktonic NTHI at the same density.
Anti-rsPilA or anti-IHF NRel were collected and sonicated as described above. After sonication for 2 min in a water bath sonicator to break up any NTHI aggregates, NRel or planktonic NTHI were incubated with the indicated antibiotics at 37° C. for 2 h, then serially diluted and plated on chocolate agar to quantify viable NTHI. To assay biofilm-resident NTHI, biofilms were established for 16 h at 37° C. as described above, washed twice with DPBS and incubated in sBHI supplemented with the indicated antibiotics at 37° C. After 2 h, biofilm-resident NTHI were collected by forceful pipetting, sonicated for 2 min and enumerated as described above. All experiments were performed at least three times on separate days with two or three technical replicates for each treatment and control group.

NRel M. catarrhalis = details: Mokrzan et al., 2018; cited from earlier work

Molecule | sensitivity to killing of NTHI biofilms co-exposed to anti-DNABII antiserum, compared to planktonic counterparts [1] | susceptibility of NRel NTHI released by anti-rsPilA, compared with growth on agar (NRel NTHI) | sensitivity of biofilm-resident NTHI to killing (NTHI) | sensitivity of anti-IHF NRel to killing, compared with planktonic NTHI (NTHI) | sensitivity of anti-IHF NRel to killing, compared with biofilm-resident NTHI (NTHI) | susceptibility of time-matched anti-IHF NRel to killing, compared with planktonic NTHI (NTHI) | susceptibility of time-matched anti-rsPilA NRel to killing, compared with planktonic NTHI (NTHI) | sensitivity of anti-rsPilA NRel to killing, compared with planktonic NTHI (NTHI) | sensitivity of anti-rsPilA NRel to killing, compared with biofilm-resident NTHI (NTHI) | killing of planktonic NTHI at the concentration chosen for the assay (NTHI) [%] | susceptibility of NRel M. catarrhalis released by anti-rsPilA, compared with growth on agar (NRel M. catarrhalis)
CC1(C)S[C@@H]2[C@H](NC(=O)[C@H](N)c3ccccc3)C(=O)N2[C@H]1C(=O)O [ampicillin] | significantly more sensitive |  |  |  |  |  |  |  |  |  | 
trimethoprim plus sulfamethoxazole [TMP-SMX] |  | more susceptible | minimal sensitivity | only equally as sensitive | significantly more sensitive | equally susceptible | significantly more susceptible | significantly greater | significantly more sensitive | ~25 | 
CC[C@H]1OC(=O)[C@H](C)[C@@H](O[C@H]2C[C@@](C)(OC)[C@@H](O)[C@H](C)O2)[C@H](C)[C@@H](O[C@@H]2O[C@H](C)C[C@H](N(C)C)[C@H]2O)[C@](C)(OC)C[C@@H](C)C(=O)[C@H](C)[C@@H](O)[C@]1(C)O [clarithromycin] |  |  |  |  |  |  |  |  |  |  | more susceptible
amoxicillin plus clavulanic acid [AMC] | significantly more sensitive |  | minimal sensitivity | significantly more sensitive | significantly more sensitive | significantly more susceptible | equally susceptible | only equally as sensitive | significantly more sensitive | ~25 | 
